This is an account of results in patent publication US6331555A, “Treatment of platelet derived growth factor related disorders such as cancers” (priority 1999, dated 2001).

For the first experiment, the target named is PDGFR (Homo sapiens, UniProt P09619). The experiment is described as follows: PDGF-stimulated receptor phosphorylation in U1242 cells, ELISA. It counts as cell-based. Details: U1242 (PDGF-β receptor); host or cells: U1242 MG glioma cells.
Chain of PDGFR (P09619 33-1106): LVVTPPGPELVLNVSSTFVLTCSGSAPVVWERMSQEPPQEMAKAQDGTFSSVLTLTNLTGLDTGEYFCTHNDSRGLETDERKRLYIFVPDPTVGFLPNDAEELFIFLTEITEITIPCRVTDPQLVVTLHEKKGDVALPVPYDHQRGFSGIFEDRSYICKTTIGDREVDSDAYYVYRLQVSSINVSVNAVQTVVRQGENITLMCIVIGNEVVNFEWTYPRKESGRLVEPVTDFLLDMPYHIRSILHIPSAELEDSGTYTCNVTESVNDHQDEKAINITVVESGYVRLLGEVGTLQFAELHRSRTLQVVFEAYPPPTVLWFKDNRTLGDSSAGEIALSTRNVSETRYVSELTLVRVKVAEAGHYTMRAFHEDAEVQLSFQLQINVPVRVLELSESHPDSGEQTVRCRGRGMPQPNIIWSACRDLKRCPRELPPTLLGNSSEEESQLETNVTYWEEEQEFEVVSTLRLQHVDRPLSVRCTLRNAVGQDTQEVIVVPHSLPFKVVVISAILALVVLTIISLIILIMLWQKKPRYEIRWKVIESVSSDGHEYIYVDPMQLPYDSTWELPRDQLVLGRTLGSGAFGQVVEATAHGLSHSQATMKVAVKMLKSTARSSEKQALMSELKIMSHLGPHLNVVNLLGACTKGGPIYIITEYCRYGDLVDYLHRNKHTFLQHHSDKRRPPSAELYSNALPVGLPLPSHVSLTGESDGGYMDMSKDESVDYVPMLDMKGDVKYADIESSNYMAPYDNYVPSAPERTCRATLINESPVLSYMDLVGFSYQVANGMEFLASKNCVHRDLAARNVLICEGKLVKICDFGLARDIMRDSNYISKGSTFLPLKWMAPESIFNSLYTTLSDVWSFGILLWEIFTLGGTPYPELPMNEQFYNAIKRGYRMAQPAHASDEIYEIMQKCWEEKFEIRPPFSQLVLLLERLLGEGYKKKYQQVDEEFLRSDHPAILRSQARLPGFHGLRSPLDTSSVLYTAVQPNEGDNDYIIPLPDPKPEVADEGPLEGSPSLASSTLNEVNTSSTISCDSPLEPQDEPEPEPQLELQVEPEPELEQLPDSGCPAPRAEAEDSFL
Settings: not given
The procedure: For ELISA assays, cells were grown to 80-90% confluency in growth medium and seeded in 96-well tissue culture plates in 0.5% serum at 25,000 to 30,000 cells per well. After overnight incubation in 0.5% serum-containingmedium, cells were changed to serum-free medium and treated with test compound for 2 hr in a 5% CO2, 37° C. incubator. Cells were then stimulated with ligand for 5-10 min followed by lysis with HNTG (20 mM Hepes, 150 mM NaCl, 10% glycerol, 5 mM EDTA, 5 mM Na3 VO4 0.2% Triton X-100, and 2 mM NaPyr). […] Lysates were incubated with shaking for 1 hr at room temperature. The plates were washed with TBST four times and then incubated with polyclonol anti-phosphotyrosine antibody at room temperature for 30 min. Excess anti-phosphotyrosine antibody was removed by rinsing the plate with TBST four times. Goat anti-rabbit IgG antibody was added to the ELISA plate for 30 min at room temperature followed by rinsing with TBST four more times.
U1242 MG cells were plated in 96-well plates at a concentration of 5×10^4 cells/well in cultured media containing 0.5% FBS. The cells were incubated for 24 hours. The cells were then treated with a particular compound for 2 hours followed by the addition of 100 ng/ml PDGF-BB and incubation for 10 minutes.
Cells were lysed in 0.2 M Hepes, 0.15 M NaCl, 10% V/V glycerol, 0.04% Triton X-100, 5 mM EDTA, 5 MM Na^+ vanadate and […] Na^+ pyrophosphate. Cell lysates were then added to an ELISA plate coated with an anti-PDGF receptor antibody (Genzyme). ELISA plates were coated at […] of antibody/well in […] of PBS for 18 hours at 4° C. prior to the addition of the lysate.
The lysate was incubated in the coated plates for 1 hour and then washed four times in TBST (35 mM Tris-HCl pH 7.0, 0.15 M NaCl, 0.1% Triton X-100). Anti-phosphotyrosine antibody ([…] in PBS) was added and the mixture was incubated for 30 minutes at room temperature. The wells were then washed four times in TBST, a secondary antibody conjugated to POD (TAGO) was added to each well, and the treated wells were incubated for 30 minutes at room temperature. The wells were then washed four times in TBST, ABTS/H2 O2 solution was added to each well and the wells were incubated for two minutes. Absorbance was then measured at 410 nm.
Background: ELISA stands for enzyme-linked immunosorbent assay.
On to `N#CC(=Cc1c[nH]c2ccccc12)C(N)=C(C#N)C#N` [Compound D12], for which the half-maximal inhibitory concentration (IC50) was 60 µM.

The experiment is the same for the next values; noted with them: 100 ng/ml PDGF-BB; read-out: ELISA P-TYR U1242 IC50.
Consider `CC(NC(=O)C(C#N)=Cc1ccc2[nH]ccc2c1)c1ccccc1` (single isomer, unassigned) [Compound I10], for which the IC50 is 90 µM.
As to `CC(O)=C(C#N)C(=O)Nc1ccc([N+](=O)[O-])cc1` [Compound B10], the IC50 turned out to be 180 µM.
On the same count and under the same terms, then `N#CC(C(=O)Nc1ccc(C(F)(F)F)cc1)=C(O)c1ccc(F)cc1` [Compound B12, 2-Propenamide, 2-cyano-3-hydroxy-3-(4-fluorophenyl)-N-[(4-trifluoromethyl)phenyl]], with 100 µM; and `N#CC(C(=O)Nc1ccc(C(F)(F)F)cc1)=C(O)C1CCCCC1` [Compound B13, 2-Propenamide, 2-cyano-3-hydroxy-3-cyclohexyl-N-[(4-trifluoromethyl)phenyl]], with 180 µM.
Still for that read-out and setting: with `CC1(C)C(C(O)=C(C#N)C(=O)Nc2ccc(C(F)(F)F)cc2)C1(C)C` [Compound B14, 2-cyano-3-hydroxy-3-(2,2,3,3-tetramethylcyclopropyl)-propanol-4-(trifluoromethyl)anilide] the figure was 180 µM; with `N#CC(C(=O)Nc1ccc(C(F)(F)F)cc1)=C(O)c1c(F)c(F)c(F)c(F)c1F` [Compound B15, 2-Propenamide, 2-cyano-3-hydroxy-3-(pentafluorophenyl)-N-[(4-trifluoromethyl)phenyl]], 120 µM; with `N#CC(C(=O)Nc1ccc(C(F)(F)F)cc1)=C(O)Cc1ccccc1` [Compound B17, 2-Butenamide, 2-cyano-3-hydroxy-4-phenyl-N-[(4-trifluoromethyl)phenyl]], 125 µM.
Regarding `CC(C)CC(O)=C(C#N)C(=O)Nc1ccc(C(F)(F)F)cc1` [Compound B18, 2-Hexeneamide, 2-cyano-3-hydroxy-5-methyl-N-[(4-trifluoromethyl)phenyl]], the IC50 came to 160 µM.
Same read-out and setting: with `N#CC(C(=O)Nc1ccc(C(F)(F)F)cc1)=C(O)C(c1ccccc1)c1ccccc1` [Compound B19, 2-Butenamide, 2-cyano-3-hydroxy-4,4-diphenyl-N-[(4-trifluoromethyl)phenyl]] the figure was 100 µM; with `N#CC(=Cc1ccc(O)c(O)c1)c1[nH]nc(N)c1C#N` [Compound C11], 70 µM; with `CN(C)CCCn1cc(C=C(C#N)C(=O)c2ccc(O)c(O)c2)c2ccccc21` [Compound D16], 50 µM.
Still for that read-out and setting: with `N#CCCn1cc(C=C(C#N)C(=O)c2ccc(O)c(O)c2)c2ccccc21` [Compound D17] the figure was > 100 µM.
On the same count and under the same terms, then `CN(C)c1ccc(NC(=O)C(=O)NN=Cc2ccc(O)c(O)c2)cc1` [Compound E10], with 45 µM; and `O=C(NN=Cc1ccc(O)c(O)c1)C(=O)Nc1cccc(O)c1` [Compound E11], with 90 µM; and `O=C(NN=Cc1ccccc1O)C(=O)Nc1cccc(O)c1` [Compound E12], with 180 µM.
On to `COc1ccccc1NC(=O)C(=O)NN=Cc1ccc(O)c(O)c1` [Compound E13], for which the half-maximal inhibitory concentration (IC50) was > 100 µM.
Consider `O=C(NN=Cc1ccc(O)cc1)C(=O)Nc1cccc([N+](=O)[O-])c1` [Compound E16], for which the IC50 was found to be 125 µM.
For `O=c1c2ccccc2nc2n1CCOC2=Cc1ccc(O)c(O)c1` [Compound F11], the IC50 amounted to 100 µM.
On the same count and under the same terms, then `O=c1c2ccccc2nc2n1CCOC2=Cc1cccc(O)c1` [Compound F12], with 70 µM; and `c1csc(-c2cnc3ccccc3n2)c1` [Compound G15], with 100 µM; and `COc1cc2nc(-c3ccccc3)cnc2cc1O` [Compound G17], with 100 µM.
Regarding `Cc1ccc2ncc(-c3ccccc3)nc2c1` [Compound G19], the concentration for half-maximal inhibition (IC50) came to 90 µM.
`Oc1cc2ncc(-c3ccccc3)nc2cc1O` [Compound G20]: the IC50 was > 100 µM.

For another experiment, the system named is C6 cells. The experiment is described as follows: C6 SRB growth assay. It counts as cell-based, rat. The conditions noted are these: Rattus norvegicus, C6; at 25 μM. (In general: The SRB assay estimates cell density from bound dye.)
`Cc1noc(C)c1C(=O)NCc1ccc(C(F)(F)F)cc1` [Compound P22, N-4-trifluoromethlybenzy 3,5-dimethylisoxazole-4-carboxamide]: the inhibition at 25 µM was ~10%.

The experiment is the same for the next values; noted with them: Rattus norvegicus, C6; read-out: C6 SRB IC50.
As for `N#CC(C(=O)N1CCOCC1)C(=S)Nc1ccccc1Cl` (centres unmarked) [Compound P19, N-2-chlorophenyl (2-cyano-2-N-morpholinocarbonyl) thioacetamide], the IC50 was > 50 µM.
Still for that read-out and setting: then `Cc1noc(C)c1C(=O)NCc1ccc(C(F)(F)F)cc1` [Compound P22, N-4-trifluoromethlybenzy 3,5-dimethylisoxazole-4-carboxamide], with > 25 µM; and `Cc1oncc1C(=O)NCc1ccc(C(F)(F)F)cc1` [Compound P23], with 18 µM.
Same read-out and setting: with `CC(O)=C(C#N)C(=O)NCc1ccc(C(F)(F)F)cc1` [Compound P24, 1-trifluorometnlybenzylaminocarbonly-1-cyano-2-hydroxy propene] the figure was 14 µM.

The IC50 is the point on the concentration scale where inhibition reaches its midpoint. As usually defined, the inhibition is the share of the control response that was lost under treatment. Read a high inhibition as a strong effect.
